Assay results published in patent US20230340440A1, “GENETIC MANIPULATION METHOD IN BACTERIA” (University of Washington, priority 2022, published 2023).

How the values were obtained:
Format in all cases: cell-based, P. putida
[1] = tested on: J3-GTPCH, J3-PTPS, J3-SR; assay: biopterin pathway activation by CRISPRa, HPLC-MS; settings: J3-SR (pBBR1-GmR), relative to off-target scRNA, FIG. 6D
[2] = tested on: J3-BBa_J23117-mvaES; assay: mevalonate pathway activation by CRISPRa, GC-MS; settings: 13-mvaES (pBBR1-GmR); relative to off-target scRNA; FIG. 7B
Procedure: For mevalonate production experiments, the GC-MS method was adapted from prior methods (Pfleger et al., 2007. Microbial sensors for small molecules: Development of a mevalonate biosensor. Metab. Eng. 9, 30-38). Single colonies from LB plates were inoculated in 500 µL of EZ-RDM (Teknova) supplemented with the appropriate antibiotics and grown in 96-deep-well plates at 30° C. with shaking overnight at 225 rpm. Overnight cultures were subcultured by 1:100 dilution into 3 mL of EZ-RDM media with 1% glucose as the carbon source, supplemented with the appropriate antibiotics, and shaken at 225 rpm for 72 hours at 30° C. After 72 hours, 560 µL of cell suspension was acidified with 140 µL of 0.5 M HCl and vortexed. 700 µL ethyl acetate was added and samples were then vortexed again vigorously for 3 minutes and centrifuged at maximum speed in a benchtop centrifuge (15,000 rcf) for 10 min. […] The temperature cycle started at 80° C. and was followed by a gradient of 20° C./min to 260° C., a second gradient of 40° C./min to 300° C., and a hold at 300° C. for 2 min. m/z = 71, the second most abundant peak corresponding to mevalonolactone, was used for quantitation (Pfleger et al., 2007. Microbial sensors for small molecules: Development of a mevalonate biosensor. Metab. Eng. 9, 30-38). […] The calculated concentration was adjusted by the addition of HCl. […]

[3] = tested on: J3 promoter; assay: CRISPRa reporter gene activation, J3-BBa_J23117-mRFP; settings: for activation of mRFP: FIG. 4
Procedure: Fluorescence measurements of reporter gene expression were carried out either by flow cytometry or plate reader. Single colonies from LB plates were inoculated in 500 µL of EZ-RDM (Teknova) supplemented with the appropriate antibiotics and grown in 96-deep-well plates at 30° C. with shaking overnight 225 rpm. For small-molecule induction, overnight cultures were diluted 100-fold into a new culture with appropriate antibiotics and inducers, then shaken overnight at 30° C., 225 rpm. For flow cytometry, overnight cultures were diluted 1:50 in Dulbecco’s phosphate-buffered saline (PBS) and analyzed on a MACSQuant VYB flow cytometer with the MACSQuantify 2.8 software (Miltenyi Biotec) using the methods and instruments settings as described (Dong et al., 2018. Synthetic CRISPR-Cas gene activators for transcriptional reprogramming in bacteria. Nat Commun 9, 2489). For plate reader measurements, 150 µL of overnight culture were transferred into a flat, clear-bottomed black 96-well plate. OD600 and fluorescence values were measured in a Biotek Synergy HTX plate reader and analyzed using the BioTek Gen5 2.07.17 software. For mRFP1 detection, the excitation wavelength was 540 nm and emission wavelength was 600 nm. For sfGFP detection, the excitation wavelength was 485 nm and the emission wavelength was 528 nm. Data were plotted using Prism (GraphPad).
Next, the 20 bp target sequence that is recognized by the scRNA was examined. The experiments described above were performed with the J1 promoter, which contains an array of 20 base target sites. An alternative promoter, termed J3, that has a different set of 20 base target sites was tested. […] Compared to the J1 promoter, where a 4-fold activation (J106 target site) was observed, the fold-activation with the J3 promoter increased to 34-fold (J306 target site) (FIG. 2D). For both J1 and J3, the CRISPRa-induced expression levels were similar. The large difference in fold-activation results from an unexpected difference in basal expression levels. The basal expression of J3-mRFP is 11-fold lower than that of J1-mRFP, which leads to much higher fold-activation. […]
With optimized expression levels and a delivery strategy for the CRISPRa system in P. putida in place, whether CRISPRa and CRISPRi can be used together to activate and repress multiple genes was tested. […] A dual scRNA/sgRNA cassette was inserted in this plasmid with a J306 scRNA for mRFP activation and an sgRNA that targets within the sfGFP open reading frame (ORF) for repression. […]

J306: scRNA, SEQ ID NO: 95, target TTGTGTCCAGAACGCTCCGT, J3 and J1(306) promoters, template strand, 81 to TSS (chemistry not given here)
Fold-change, metabolite production [1]: 5-fold | Fold-change, metabolite production [2]: >40-fold | Fold-change ([3]; J3-mRFP (integrated), dual reporters genomically-integrated, FIG. 15A): 3-fold | Fold-change ([3]; J3-mRFP (pBBR1-GmR), dual mRFP/sfGFP reporter plasmid-bourne, FIG. 13): 41-fold | activation of mRFP ([3]; just a single scRNA delivered, weak mRFP/strong sfGFP dual-reporter plasmid): 15 fold | activation of mRFP ([3]; simultaneous CRISPRa/CRISPRi, dual-reporter plasmid with sfGFP-repressing sgRNA): 6.6 fold
